Legend:
[1] = system: wild oat; assay: Test Example 4: herbicidal effect by soil treatment (Table 19, symbol I); format: in vivo, wild oat (Avena fatua); settings: amount of applied herbicide 320 g/ha
Summary of the method: (§1)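 Step 1: sow seeds in sterilized diluvial soil, cover ~1.5 cm. Step 2: spray diluted emulsion onto soil surface at predetermined rate. Step 3: greenhouse, 25–30° C, three weeks. Step 4: grade effect on each plant by earlier criteria.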

[2] = system: Italian ryegrass; assay: Test Example 4: herbicidal effect by soil treatment (Table 19, symbol K); format: in vivo, Italian ryegrass (Lolium multiflorum); settings: amount of applied herbicide 320 g/ha
Summary of the method: as §1

[3] = system: lambsquarters; assay: Test Example 4: herbicidal effect by soil treatment (Table 19, symbol O); format: in vivo, lambsquarters (Chenopodium album); settings: amount of applied herbicide 320 g/ha
Summary of the method: as §1

[4] = system: barnyard grass; assay: Test Example 5: herbicidal effect by foliage application, plastic box (Table 20, symbol H); format: in vivo, barnyard grass (Echinochloa crus-galli); settings: foliage application, 320 g/ha, three weeks after application
Summary of the method: (§2)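 Foliar spray test: emulsion formulation diluted in water to a set application rate, sprayed onto 14-day-old plants raised in diluvial soil at 25° C to 30° C under glass. Both herbicidal effect and crop effect rated visually three weeks later.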

[5] = system: persian speedwell; assay: Test Example 5: herbicidal effect by foliage application, plastic box (Table 20, symbol R); format: in vivo, Persian speedwell (Veronica persica); settings: foliage application, 320 g/ha, three weeks after application
Summary of the method: as §2

[6] = system: windgrass; assay: Test Example 5: herbicidal effect by foliage application, plastic box (Table 20, symbol L); format: in vivo, windgrass (Apera spica-venti); settings: foliage application, 320 g/ha, three weeks after application
Summary of the method: as §2

[7] = system: Italian ryegrass; assay: Test Example 5: herbicidal effect by foliage application, plastic box (Table 20, symbol K); format: in vivo, Italian ryegrass (Lolium multiflorum); settings: foliage application, 320 g/ha, three weeks after application
Summary of the method: as §2

[8] = system: windgrass; assay: Test Example 4: herbicidal effect by soil treatment (Table 19, symbol L); format: in vivo, windgrass (Apera spica-venti); settings: amount of applied herbicide 320 g/ha
Summary of the method: as §1

[9] = system: chickweed; assay: Test Example 5: herbicidal effect by foliage application, plastic box (Table 20, symbol P); format: in vivo, common chickweed (Stellaria media); settings: foliage application, 320 g/ha, three weeks after application
Summary of the method: as §2

[10] = system: redroot pigweed; assay: Test Example 5: herbicidal effect by foliage application, plastic box (Table 20, symbol N); format: in vivo, redroot pigweed (Amaranthus retroflexus); settings: foliage application, 320 g/ha, three weeks after application
Summary of the method: as §2

[11] = system: wild oat; assay: Test Example 5: herbicidal effect by foliage application, plastic box (Table 20, symbol I); format: in vivo, wild oat (Avena fatua); settings: foliage application, 320 g/ha, three weeks after application
Summary of the method: as §2

[12] = system: blackgrass; assay: Test Example 4: herbicidal effect by soil treatment (Table 19, symbol J); format: in vivo, blackgrass (Alopecurus myosuroides); settings: amount of applied herbicide 320 g/ha
Summary of the method: as §1

[13] = system: chickweed; assay: Test Example 4: herbicidal effect by soil treatment (Table 19, symbol P); format: in vivo, common chickweed (Stellaria media); settings: amount of applied herbicide 320 g/ha
Summary of the method: as §1

[14] = system: false cleavers; assay: Test Example 5: herbicidal effect by foliage application, plastic box (Table 20, symbol Q); format: in vivo, false cleavers (Galium spurium); settings: foliage application, 320 g/ha, three weeks after application
Summary of the method: as §2

[15] = system: barnyard grass; assay: Test Example 4: herbicidal effect by soil treatment (Table 19, symbol H); format: in vivo, barnyard grass (Echinochloa crus-galli); settings: amount of applied herbicide 320 g/ha
Summary of the method: as §1

[16] = system: velvetleaf; assay: Test Example 5: herbicidal effect by foliage application, plastic box (Table 20, symbol M); format: in vivo, velvetleaf (Abutilon theophrasti); settings: foliage application, 320 g/ha, three weeks after application
Summary of the method: as §2

[17] = system: persian speedwell; assay: Test Example 4: herbicidal effect by soil treatment (Table 19, symbol R); format: in vivo, Persian speedwell (Veronica persica); settings: amount of applied herbicide 320 g/ha
Summary of the method: as §1

[18] = system: southern crabgrass; assay: Test Example 5: herbicidal effect by foliage application, plastic box (Table 20, symbol F); format: in vivo, southern crabgrass (Digitaria ciliaris); settings: foliage application, 320 g/ha, three weeks after application
Summary of the method: as §2

[19] = system: blackgrass; assay: Test Example 5: herbicidal effect by foliage application, plastic box (Table 20, symbol J); format: in vivo, blackgrass (Alopecurus myosuroides); settings: foliage application, 320 g/ha, three weeks after application
Summary of the method: as §2

[20] = system: southern crabgrass; assay: Test Example 4: herbicidal effect by soil treatment (Table 19, symbol F); format: in vivo, southern crabgrass (Digitaria ciliaris); settings: amount of applied herbicide 320 g/ha
Summary of the method: as §1

[21] = system: false cleavers; assay: Test Example 4: herbicidal effect by soil treatment (Table 19, symbol Q); format: in vivo, false cleavers (Galium spurium); settings: amount of applied herbicide 320 g/ha
Summary of the method: as §1

[22] = system: green foxtail; assay: Test Example 4: herbicidal effect by soil treatment (Table 19, symbol G); format: in vivo, green foxtail (Setaria viridis); settings: amount of applied herbicide 320 g/ha
Summary of the method: as §1

[23] = system: velvetleaf; assay: Test Example 4: herbicidal effect by soil treatment (Table 19, symbol M); format: in vivo, velvetleaf (Abutilon theophrasti); settings: amount of applied herbicide 320 g/ha
Summary of the method: as §1

[24] = system: redroot pigweed; assay: Test Example 4: herbicidal effect by soil treatment (Table 19, symbol N); format: in vivo, redroot pigweed (Amaranthus retroflexus); settings: amount of applied herbicide 320 g/ha
Summary of the method: as §1

[25] = system: lambsquarters; assay: Test Example 5: herbicidal effect by foliage application, plastic box (Table 20, symbol O); format: in vivo, lambsquarters (Chenopodium album); settings: foliage application, 320 g/ha, three weeks after application
Summary of the method: as §2

[26] = system: green foxtail; assay: Test Example 5: herbicidal effect by foliage application, plastic box (Table 20, symbol G); format: in vivo, green foxtail (Setaria viridis); settings: foliage application, 320 g/ha, three weeks after application
Summary of the method: as §2

[27] = system: rice flat sedge; assay: Test Example 3: herbicidal effect by foliage application, Wagner pot (Table 18, symbol E); format: in vivo, rice flat sedge (Cyperus iria); settings: 320 g/ha
Summary of the method: (§3)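 Plants were sown in alluvial soil held under 0.1–0.5 cm standing water and grown 14 days in a greenhouse at 25–30 °C. An emulsifiable formulation, water-diluted to the set dose, was then sprayed onto the foliage, and effects were scored three weeks later using previously defined criteria.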

[28] = system: Chinese sprangletop; assay: Test Example 3: herbicidal effect by foliage application, Wagner pot (Table 18, symbol D); format: in vivo, chinese sprangletop (Leptochloa chinensis); settings: 320 g/ha
Summary of the method: as §3

[29] = system: barnyard grass; assay: Test Example 3: herbicidal effect by foliage application, Wagner pot (Table 18, symbol H); format: in vivo, barnyard grass (Echinochloa crus-galli); settings: 320 g/ha
Summary of the method: as §3

## CCCC(=O)Oc1c(C)nn(C)c(=O)c1-c1c(-c2ccsc2)sc2ccccc12 [1-084]
[1]
  herbicidal effect rating, I: wild oat: 0 (Herbicidal rate of 5% or less (almost no effect))
[2]
  herbicidal effect rating, K: Italian ryegrass: 0 (Herbicidal rate of 5% or less (almost no effect))
[3]
  herbicidal effect rating, O: lambsquarters: 0 (Herbicidal rate of 5% or less (almost no effect))
[4]
  herbicidal effect grade, H: barnyard grass: 0 (Herbicidal rate of 5% or less (almost no effect))
[5]
  herbicidal effect grade, R: persian speedwell: 0 (Herbicidal rate of 5% or less (almost no effect))
[6]
  herbicidal effect grade, L: windgrass: 0 (Herbicidal rate of 5% or less (almost no effect))
[7]
  herbicidal effect grade, K: Italian ryegrass: 1 (Herbicidal rate of 5% or more and less than 20%)
[8]
  herbicidal effect rating, L: windgrass: 0 (Herbicidal rate of 5% or less (almost no effect))
[9]
  herbicidal effect grade, P: chickweed: 5 (Herbicidal rate of 90% or more (almost completely withered))
[10]
  herbicidal effect grade, N: redroot pigweed: 0 (Herbicidal rate of 5% or less (almost no effect))
[11]
  herbicidal effect grade, I: wild oat: 0 (Herbicidal rate of 5% or less (almost no effect))
[12]
  herbicidal effect rating, J: blackgrass: 0 (Herbicidal rate of 5% or less (almost no effect))
[13]
  herbicidal effect rating, P: chickweed: 1 (Herbicidal rate of 5% or more and less than 20%)
[14]
  herbicidal effect grade, Q: false cleavers: 0 (Herbicidal rate of 5% or less (almost no effect))
[15]
  herbicidal effect rating, H: barnyard grass: 1 (Herbicidal rate of 5% or more and less than 20%)
[16]
  herbicidal effect grade, M: velvetleaf: 0 (Herbicidal rate of 5% or less (almost no effect))
[17]
  herbicidal effect rating, R: persian speedwell: 0 (Herbicidal rate of 5% or less (almost no effect))
[18]
  herbicidal effect grade, F: southern crabgrass: 0 (Herbicidal rate of 5% or less (almost no effect))
[19]
  herbicidal effect grade, J: blackgrass: 0 (Herbicidal rate of 5% or less (almost no effect))
[20]
  herbicidal effect rating, F: southern crabgrass: 1 (Herbicidal rate of 5% or more and less than 20%)
[21]
  herbicidal effect rating, Q: false cleavers: 0 (Herbicidal rate of 5% or less (almost no effect))
[22]
  herbicidal effect rating, G: green foxtail: 2 (Herbicidal rate of 20% or more and less than 40%)
[23]
  herbicidal effect rating, M: velvetleaf: 0 (Herbicidal rate of 5% or less (almost no effect))
[24]
  herbicidal effect rating, N: redroot pigweed: 0 (Herbicidal rate of 5% or less (almost no effect))
[25]
  herbicidal effect grade, O: lambsquarters: 0 (Herbicidal rate of 5% or less (almost no effect))
[26]
  herbicidal effect grade, G: green foxtail: 0 (Herbicidal rate of 5% or less (almost no effect))

## CCCC(=O)Oc1c(C)nn(C)c(=O)c1-c1c(-c2ccc3c(c2)OCCO3)sc2cc(Cl)ccc12 [3-048]
[1]
  I: wild oat, herbicidal effect grade: 0 (Herbicidal rate of 5% or less (almost no effect))
[2]
  K: Italian ryegrass, herbicidal effect grade: 0 (Herbicidal rate of 5% or less (almost no effect))
[3]
  O: lambsquarters, herbicidal effect grade: 0 (Herbicidal rate of 5% or less (almost no effect))
[4]
  H: barnyard grass, herbicidal effect grade: 0 (Herbicidal rate of 5% or less (almost no effect))
[6]
  L: windgrass, herbicidal effect grade: 0 (Herbicidal rate of 5% or less (almost no effect))
[7]
  K: Italian ryegrass, herbicidal effect grade: 0 (Herbicidal rate of 5% or less (almost no effect))
[8]
  L: windgrass, herbicidal effect grade: 0 (Herbicidal rate of 5% or less (almost no effect))
[9]
  P: chickweed, herbicidal effect grade: 5 (Herbicidal rate of 90% or more (almost completely withered))
[10]
  N: redroot pigweed, herbicidal effect grade: 3 (Herbicidal rate of 40% or more and less than 70%)
[11]
  I: wild oat, herbicidal effect grade: 0 (Herbicidal rate of 5% or less (almost no effect))
[12]
  J: blackgrass, herbicidal effect grade: 0 (Herbicidal rate of 5% or less (almost no effect))
[27]
  herbicidal effect on rice flat sedge (E): 2 (Herbicidal rate of 20% or more and less than 40%)
[13]
  P: chickweed, herbicidal effect grade: 1 (Herbicidal rate of 5% or more and less than 20%)
[14]
  Q: false cleavers, herbicidal effect grade: 4 (Herbicidal rate of 70% or more and less than 90%)
[28]
  herbicidal effect on Chinese sprangletop (D): 0 (Herbicidal rate of 5% or less (almost no effect))
[15]
  H: barnyard grass, herbicidal effect grade: 0 (Herbicidal rate of 5% or less (almost no effect))
[16]
  M: velvetleaf, herbicidal effect grade: 1 (Herbicidal rate of 5% or more and less than 20%)
[17]
  R: persian speedwell, herbicidal effect grade: 0 (Herbicidal rate of 5% or less (almost no effect))
[18]
  F: southern crabgrass, herbicidal effect grade: 0 (Herbicidal rate of 5% or less (almost no effect))
[19]
  J: blackgrass, herbicidal effect grade: 0 (Herbicidal rate of 5% or less (almost no effect))
[20]
  F: southern crabgrass, herbicidal effect grade: 0 (Herbicidal rate of 5% or less (almost no effect))
[21]
  Q: false cleavers, herbicidal effect grade: 4 (Herbicidal rate of 70% or more and less than 90%)
[22]
  G: green foxtail, herbicidal effect grade: 0 (Herbicidal rate of 5% or less (almost no effect))
[23]
  M: velvetleaf, herbicidal effect grade: 0 (Herbicidal rate of 5% or less (almost no effect))
[24]
  N: redroot pigweed, herbicidal effect grade: 0 (Herbicidal rate of 5% or less (almost no effect))
[29]
  herbicidal effect on barnyard grass (H): 4 (Herbicidal rate of 70% or more and less than 90%)
[25]
  O: lambsquarters, herbicidal effect grade: 3 (Herbicidal rate of 40% or more and less than 70%)
[26]
  G: green foxtail, herbicidal effect grade: 0 (Herbicidal rate of 5% or less (almost no effect))
